In patent US20240365781A1, “SYNERGISTICALLY EFFECTIVE HERBICIDE COMPOSITION COMPRISING PELARGONIC ACID AND FLAZASULFURON” (Belchim Crop Protection NV, priority 2017, published 2024):

How the values were obtained:
Assay in all cases: post-emergence field trial under rows of vines, 150-200 L water/ha (Examples 6-9)
Assay type in all cases: in vivo
Senecio vulgaris = conditions: flazasulfuron 40 g/ha
Source text: (§1) The expected activity of a given combination of two or three herbicides can be calculated as follows according to a calculation method by Colby (cf. COLBY, S. R.: “Calculating synergistic and antagonistic responses of herbicide combinations”, • Weeds 15, pages 20-22, 1967): • If X=% damage by herbicide (A) at an application rate of m g/ha, • Y=% damage by herbicide (B) at an application rate of n g/ha, • E=the expected damage by herbicides (A) and (B) at application rates of m and n […] and, • then for a combination:
(§2) Individual compositions comprising pelargonic acid or flazasulfuron are compared with a herbicide composition according to the invention comprising pelargonic acid and flazasulfuron.
(§3) Herbicidal activity was determined by performing a post-emergence test. […] The corresponding mixture was in the form of a spray solution. Besides, spray solutions of individual compositions comprising pelargonic acid or flazasulfuron were used.
(§4) The spray solution was applied on plants of unwanted vegetation present on fields where perennial crops were grown.
(§5) After 5 to 88 days after application of the spray solution, the degree of damage to the unwanted vegetation is rated in % of plants of unwanted vegetation that were killed. Tests were performed on test fields (field trials).

Chenopodium album = conditions: flazasulfuron 40 g/ha
Source text: as §1, §2, §3, §4, §5

[1] = tested on: Digitaria sanguinalis and Setaria pumila; conditions: flazasulfuron 40 g/ha
Source text: as §1, §2, §3, §4, §5

Veronica persicae = conditions: flazasulfuron 40 g/ha
Source text: as §1, §2, §3, §4, §5

Oxalis latifolia = conditions: flazasulfuron 40 g/ha
Source text: as §1, §2, §3, §4, §5

Geranium molle = conditions: 15 d, flazasulfuron 40 g/ha
Source text: as §1, §2, §3, §4, §5

Erigeron sumatrensis = conditions: flazasulfuron 40 g/ha
Source text: as §1, §2, §3, §4, §5

Amaranthus retroflexus = conditions: flazasulfuron 40 g/ha
Source text: as §1, §2, §3, §4, §5

Convolvulus arvensis = conditions: flazasulfuron 40 g/ha
Source text: as §1, §2, §3, §4, §5

Digitaria sanguinalis = conditions: flazasulfuron 40 g/ha
Source text: as §1, §2, §3, §4, §5

Sonchus oleracea = conditions: flazasulfuron 40 g/ha
Source text: as §1, §2, §3, §4, §5

[2] = 14 d, pelargonic acid 5440 g/ha
[3] = 14 d, pelargonic acid 6800 g/ha
[4] = 14 d, pelargonic acid 8160 g/ha
[5] = 31 d, pelargonic acid 5440 g/ha
[6] = 31 d, pelargonic acid 6800 g/ha
[7] = 31 d, pelargonic acid 8160 g/ha
[8] = 31 d, pelargonic acid 10880 g/ha
[9] = 58 d, pelargonic acid 5440 g/ha
[10] = 58 d, pelargonic acid 8160 g/ha
[11] = 58 d, pelargonic acid 10880 g/ha
[12] = 7 d, pelargonic acid 10880 g/ha
[13] = 14 d, pelargonic acid 10880 g/ha
[14] = 58 d, pelargonic acid 6800 g/ha
[15] = 28 d, pelargonic acid 6800 g/ha
[16] = 28 d, pelargonic acid 8160 g/ha
[17] = 28 d, pelargonic acid 10880 g/ha
[18] = 65 d, pelargonic acid 5440 g/ha
[19] = 65 d, pelargonic acid 8160 g/ha
[20] = 65 d, pelargonic acid 10880 g/ha
[21] = 27 d, pelargonic acid 5440 g/ha
[22] = 27 d, pelargonic acid 6800 g/ha
[23] = 27 d, pelargonic acid 8160 g/ha
[24] = 27 d, pelargonic acid 10880 g/ha
[25] = 56 d, pelargonic acid 5440 g/ha
[26] = 56 d, pelargonic acid 10880 g/ha
[27] = 56 d, pelargonic acid 6800 g/ha
[28] = 56 d, pelargonic acid 8160 g/ha

Q: How did the herbicidal effect (Senecio vulgaris; 7 d, pelargonic acid 5440 g/ha) turn out when COc1cc(OC)nc(NC(=O)NS(=O)(=O)c2ncccc2C(F)(F)F)n1 [Flazasulfuron, 1-(4,6-dimethoxypyrimidin-2-yl)-3-(3-trifluoromethyl-2-pyridylsulfonyl)urea] was run?
A: 20%

Q: What about the herbicidal effect (Senecio vulgaris; 7 d, pelargonic acid 6800 g/ha) of the same compound?
A: 20%

Q: And the herbicidal effect (Senecio vulgaris; [2])?
A: 20%

Q: What about the herbicidal effect (Senecio vulgaris; [3]) of the same compound?
A: 20%

Q: And the herbicidal effect (Senecio vulgaris; [4])?
A: 20%

Q: And the herbicidal effect (Senecio vulgaris; [5])?
A: 50%

Q: What about the herbicidal effect (Senecio vulgaris; [6]) of the same compound?
A: 50%

Q: And the herbicidal effect (Senecio vulgaris; [7])?
A: 50%

Q: And the herbicidal effect (Senecio vulgaris; [8])?
A: 50%

Q: What about the herbicidal effect (Senecio vulgaris; [9]) of the same compound?
A: 97%

Q: And the herbicidal effect (Senecio vulgaris; [10])?
A: 97%

Q: And the herbicidal effect (Senecio vulgaris; [11])?
A: 97%

Q: What about the herbicidal effect (Chenopodium album; 7 d, pelargonic acid 5440 g/ha) of the same compound?
A: 23%

Q: And the herbicidal effect (Chenopodium album; [12])?
A: 23%

Q: What about the herbicidal effect (Chenopodium album; [2]) of the same compound?
A: 25%

Q: And the herbicidal effect (Chenopodium album; [13])?
A: 25%

Q: And the herbicidal effect (Chenopodium album; [5])?
A: 53%

Q: And the herbicidal effect (Chenopodium album; [7])?
A: 53%

Q: And the herbicidal effect (Chenopodium album; [8])?
A: 53%

Q: What about the herbicidal effect (Chenopodium album; [9]) of the same compound?
A: 65%

Q: And the herbicidal effect (Chenopodium album; [14])?
A: 65%

Q: And the herbicidal effect (Chenopodium album; [10])?
A: 65%

Q: What about the herbicidal effect (Chenopodium album; [11]) of the same compound?
A: 65%

Q: What about the herbicidal effect ([1]; 7 d, pelargonic acid 5440 g/ha) of the same compound?
A: 13%

Q: What about the herbicidal effect ([1]; 7 d, pelargonic acid 6800 g/ha) of the same compound?
A: 13%

Q: And the herbicidal effect ([1]; 7 d, pelargonic acid 8160 g/ha)?
A: 13%

Q: And the herbicidal effect [1, 12]?
A: 13%

Q: And the herbicidal effect [1, 2]?
A: 91%

Q: What about the herbicidal effect [1, 4] of the same compound?
A: 91%

Q: What about the herbicidal effect [1, 13] of the same compound?
A: 91%

Q: And the herbicidal effect ([1]; 28 d, pelargonic acid 5440 g/ha)?
A: 90%

Q: What about the herbicidal effect [1, 15] of the same compound?
A: 90%

Q: And the herbicidal effect [1, 16]?
A: 90%

Q: What about the herbicidal effect [1, 17] of the same compound?
A: 90%

Q: What about the herbicidal effect [1, 18] of the same compound?
A: 98%

Q: And the herbicidal effect [1, 19]?
A: 98%

Q: And the herbicidal effect [1, 20]?
A: 98%

Q: What about the herbicidal effect (Veronica persicae; 7 d, pelargonic acid 5440 g/ha) of the same compound?
A: 43%

Q: And the herbicidal effect (Veronica persicae; 7 d, pelargonic acid 6800 g/ha)?
A: 43%

Q: What about the herbicidal effect (Veronica persicae; 7 d, pelargonic acid 8160 g/ha) of the same compound?
A: 43%

Q: What about the herbicidal effect (Veronica persicae; [12]) of the same compound?
A: 43%

Q: And the herbicidal effect (Veronica persicae; [2])?
A: 50%

Q: What about the herbicidal effect (Veronica persicae; [3]) of the same compound?
A: 50%

Q: What about the herbicidal effect (Veronica persicae; [4]) of the same compound?
A: 50%

Q: And the herbicidal effect (Veronica persicae; [13])?
A: 50%

Q: What about the herbicidal effect (Veronica persicae; [21]) of the same compound?
A: 24%

Q: And the herbicidal effect (Veronica persicae; [22])?
A: 24%

Q: What about the herbicidal effect (Veronica persicae; [23]) of the same compound?
A: 24%

Q: And the herbicidal effect (Veronica persicae; [24])?
A: 24%

Q: And the herbicidal effect (Veronica persicae; [25])?
A: 0%

Q: What about the herbicidal effect (Veronica persicae; [26]) of the same compound?
A: 0%

Q: What about the herbicidal effect (Oxalis latifolia; 7 d, pelargonic acid 6800 g/ha) of the same compound?
A: 29%

Q: What about the herbicidal effect (Oxalis latifolia; 7 d, pelargonic acid 8160 g/ha) of the same compound?
A: 29%

Q: What about the herbicidal effect (Oxalis latifolia; [12]) of the same compound?
A: 29%

Q: What about the herbicidal effect (Oxalis latifolia; [2]) of the same compound?
A: 49%

Q: And the herbicidal effect (Oxalis latifolia; [3])?
A: 49%

Q: And the herbicidal effect (Oxalis latifolia; [4])?
A: 49%

Q: And the herbicidal effect (Oxalis latifolia; [13])?
A: 49%

Q: What about the herbicidal effect (Oxalis latifolia; [15]) of the same compound?
A: 44%

Q: What about the herbicidal effect (Geranium molle; pelargonic acid 5440 g/ha) of the same compound?
A: 63%

Q: What about the herbicidal effect (Geranium molle; pelargonic acid 6800 g/ha) of the same compound?
A: 63%

Q: What about the herbicidal effect (Geranium molle; pelargonic acid 8160 g/ha) of the same compound?
A: 63%

Q: What about the herbicidal effect (Geranium molle; pelargonic acid 10880 g/ha) of the same compound?
A: 63%

Q: What about the herbicidal effect (Erigeron sumatrensis; 5 d, pelargonic acid 5440 g/ha) of the same compound?
A: 18%

Q: And the herbicidal effect (Erigeron sumatrensis; 5 d, pelargonic acid 8160 g/ha)?
A: 18%

Q: What about the herbicidal effect (Erigeron sumatrensis; 15 d, pelargonic acid 5440 g/ha) of the same compound?
A: 98%

Q: And the herbicidal effect (Erigeron sumatrensis; 15 d, pelargonic acid 6800 g/ha)?
A: 98%

Q: What about the herbicidal effect (Erigeron sumatrensis; 15 d, pelargonic acid 8160 g/ha) of the same compound?
A: 98%

Q: What about the herbicidal effect (Amaranthus retroflexus; 7 d, pelargonic acid 5440 g/ha) of the same compound?
A: 23%

Q: What about the herbicidal effect (Amaranthus retroflexus; [12]) of the same compound?
A: 23%

Q: What about the herbicidal effect (Amaranthus retroflexus; [2]) of the same compound?
A: 23%

Q: What about the herbicidal effect (Amaranthus retroflexus; [13]) of the same compound?
A: 23%

Q: What about the herbicidal effect (Amaranthus retroflexus; [5]) of the same compound?
A: 53%

Q: What about the herbicidal effect (Amaranthus retroflexus; [6]) of the same compound?
A: 53%

Q: And the herbicidal effect (Amaranthus retroflexus; [7])?
A: 53%

Q: And the herbicidal effect (Amaranthus retroflexus; [8])?
A: 53%

Q: What about the herbicidal effect (Amaranthus retroflexus; [9]) of the same compound?
A: 78%

Q: And the herbicidal effect (Amaranthus retroflexus; [14])?
A: 78%

Q: And the herbicidal effect (Amaranthus retroflexus; [10])?
A: 78%

Q: And the herbicidal effect (Amaranthus retroflexus; [11])?
A: 78%

Q: And the herbicidal effect (Convolvulus arvensis; 7 d, pelargonic acid 5440 g/ha)?
A: 73%

Q: And the herbicidal effect (Convolvulus arvensis; 7 d, pelargonic acid 6800 g/ha)?
A: 73%

Q: And the herbicidal effect (Convolvulus arvensis; 7 d, pelargonic acid 8160 g/ha)?
A: 73%

Q: And the herbicidal effect (Convolvulus arvensis; [2])?
A: 88%

Q: And the herbicidal effect (Convolvulus arvensis; [3])?
A: 88%

Q: And the herbicidal effect (Convolvulus arvensis; [4])?
A: 88%

Q: What about the herbicidal effect (Convolvulus arvensis; [13]) of the same compound?
A: 88%

Q: What about the herbicidal effect (Convolvulus arvensis; [15]) of the same compound?
A: 74%

Q: And the herbicidal effect (Convolvulus arvensis; [16])?
A: 74%

Q: And the herbicidal effect (Convolvulus arvensis; [17])?
A: 74%

Q: What about the herbicidal effect (Convolvulus arvensis; [18]) of the same compound?
A: 0%

Q: And the herbicidal effect (Convolvulus arvensis; 65 d, pelargonic acid 6800 g/ha)?
A: 0%

Q: And the herbicidal effect (Convolvulus arvensis; [19])?
A: 0%

Q: What about the herbicidal effect (Convolvulus arvensis; [20]) of the same compound?
A: 0%

Q: And the herbicidal effect (Digitaria sanguinalis; 7 d, pelargonic acid 5440 g/ha)?
A: 51%

Q: And the herbicidal effect (Digitaria sanguinalis; 7 d, pelargonic acid 6800 g/ha)?
A: 51%

Q: What about the herbicidal effect (Digitaria sanguinalis; 7 d, pelargonic acid 8160 g/ha) of the same compound?
A: 51%

Q: And the herbicidal effect (Digitaria sanguinalis; [12])?
A: 51%

Q: What about the herbicidal effect (Digitaria sanguinalis; [2]) of the same compound?
A: 80%

Q: What about the herbicidal effect (Digitaria sanguinalis; [3]) of the same compound?
A: 80%

Q: And the herbicidal effect (Digitaria sanguinalis; [4])?
A: 80%

Q: What about the herbicidal effect (Digitaria sanguinalis; [13]) of the same compound?
A: 80%

Q: And the herbicidal effect (Digitaria sanguinalis; [21])?
A: 73%

Q: What about the herbicidal effect (Digitaria sanguinalis; [22]) of the same compound?
A: 73%

Q: What about the herbicidal effect (Digitaria sanguinalis; [23]) of the same compound?
A: 73%

Q: What about the herbicidal effect (Digitaria sanguinalis; [24]) of the same compound?
A: 73%

Q: And the herbicidal effect (Digitaria sanguinalis; [25])?
A: 64%

Q: And the herbicidal effect (Digitaria sanguinalis; [27])?
A: 64%

Q: What about the herbicidal effect (Digitaria sanguinalis; [28]) of the same compound?
A: 64%

Q: What about the herbicidal effect (Digitaria sanguinalis; [26]) of the same compound?
A: 64%

Q: What about the herbicidal effect (Sonchus oleracea; [2]) of the same compound?
A: 75%

Q: And the herbicidal effect (Sonchus oleracea; [3])?
A: 75%

Q: And the herbicidal effect (Sonchus oleracea; [4])?
A: 75%

Q: And the herbicidal effect (Sonchus oleracea; [13])?
A: 75%

Q: What about the herbicidal effect (Sonchus oleracea; [21]) of the same compound?
A: 74%

Q: What about the herbicidal effect (Sonchus oleracea; [22]) of the same compound?
A: 74%

Q: What about the herbicidal effect (Sonchus oleracea; [23]) of the same compound?
A: 74%

Q: And the herbicidal effect (Sonchus oleracea; [24])?
A: 74%

Q: What about the herbicidal effect (Sonchus oleracea; [25]) of the same compound?
A: 70%

Q: What about the herbicidal effect (Sonchus oleracea; [27]) of the same compound?
A: 70%

Q: And the herbicidal effect (Sonchus oleracea; [28])?
A: 70%

Q: What about the herbicidal effect (Sonchus oleracea; [26]) of the same compound?
A: 70%
